Legend:
[1] = target: Serine/threonine-protein kinase DCLK2 (Homo sapiens) (UniProt Q8N568); settings: Compound concentration 1.0 uM
[2] = target: T1, Cyclin-G-associated kinase (Homo sapiens) (UniProt O14976)
T1 sequence (whole entry): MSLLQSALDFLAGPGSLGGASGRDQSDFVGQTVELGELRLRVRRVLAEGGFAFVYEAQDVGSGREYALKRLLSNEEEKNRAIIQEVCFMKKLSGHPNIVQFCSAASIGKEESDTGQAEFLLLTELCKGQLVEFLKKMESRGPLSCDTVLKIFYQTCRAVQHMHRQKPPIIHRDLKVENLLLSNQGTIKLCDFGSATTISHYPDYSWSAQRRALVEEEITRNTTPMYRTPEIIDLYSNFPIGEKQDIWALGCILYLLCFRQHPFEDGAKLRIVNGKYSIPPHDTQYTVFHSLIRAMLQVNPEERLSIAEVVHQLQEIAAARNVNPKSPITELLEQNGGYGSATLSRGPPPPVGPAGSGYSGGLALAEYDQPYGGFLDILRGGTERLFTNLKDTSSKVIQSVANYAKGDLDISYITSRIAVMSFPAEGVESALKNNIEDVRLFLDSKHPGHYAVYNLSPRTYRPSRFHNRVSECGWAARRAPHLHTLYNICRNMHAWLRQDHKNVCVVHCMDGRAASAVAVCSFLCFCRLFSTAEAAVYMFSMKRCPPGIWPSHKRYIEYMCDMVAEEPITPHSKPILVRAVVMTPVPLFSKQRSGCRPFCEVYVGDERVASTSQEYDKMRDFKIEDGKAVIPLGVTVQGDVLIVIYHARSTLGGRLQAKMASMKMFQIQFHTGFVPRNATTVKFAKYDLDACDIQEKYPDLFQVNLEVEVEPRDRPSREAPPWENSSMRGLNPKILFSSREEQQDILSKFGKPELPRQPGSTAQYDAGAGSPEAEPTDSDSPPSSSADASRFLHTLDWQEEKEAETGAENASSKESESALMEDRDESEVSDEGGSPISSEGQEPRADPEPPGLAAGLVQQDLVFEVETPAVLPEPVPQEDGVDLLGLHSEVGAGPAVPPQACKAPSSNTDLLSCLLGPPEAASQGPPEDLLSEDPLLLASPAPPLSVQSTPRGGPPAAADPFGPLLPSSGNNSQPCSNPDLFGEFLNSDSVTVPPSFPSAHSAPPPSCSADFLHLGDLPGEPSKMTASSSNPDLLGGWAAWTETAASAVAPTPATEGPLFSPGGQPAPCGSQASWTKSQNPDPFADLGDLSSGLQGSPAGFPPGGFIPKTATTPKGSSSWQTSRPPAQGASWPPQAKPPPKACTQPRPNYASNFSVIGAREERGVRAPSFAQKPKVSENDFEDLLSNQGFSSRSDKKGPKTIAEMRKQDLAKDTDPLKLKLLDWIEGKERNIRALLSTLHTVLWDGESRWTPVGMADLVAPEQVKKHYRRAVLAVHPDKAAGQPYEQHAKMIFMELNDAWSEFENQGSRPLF

[3] = target: Mitogen-activated protein kinase 12 (Homo sapiens) (UniProt P53778); settings: Compound concentration 1.0 uM
[4] = target: Prostaglandin G/H synthase 2 (Homo sapiens) (UniProt P35354); settings: Compound concentration 10.0 uM
Prostaglandin G/H synthase 2 (Homo sapiens), sequence (P35354 whole entry): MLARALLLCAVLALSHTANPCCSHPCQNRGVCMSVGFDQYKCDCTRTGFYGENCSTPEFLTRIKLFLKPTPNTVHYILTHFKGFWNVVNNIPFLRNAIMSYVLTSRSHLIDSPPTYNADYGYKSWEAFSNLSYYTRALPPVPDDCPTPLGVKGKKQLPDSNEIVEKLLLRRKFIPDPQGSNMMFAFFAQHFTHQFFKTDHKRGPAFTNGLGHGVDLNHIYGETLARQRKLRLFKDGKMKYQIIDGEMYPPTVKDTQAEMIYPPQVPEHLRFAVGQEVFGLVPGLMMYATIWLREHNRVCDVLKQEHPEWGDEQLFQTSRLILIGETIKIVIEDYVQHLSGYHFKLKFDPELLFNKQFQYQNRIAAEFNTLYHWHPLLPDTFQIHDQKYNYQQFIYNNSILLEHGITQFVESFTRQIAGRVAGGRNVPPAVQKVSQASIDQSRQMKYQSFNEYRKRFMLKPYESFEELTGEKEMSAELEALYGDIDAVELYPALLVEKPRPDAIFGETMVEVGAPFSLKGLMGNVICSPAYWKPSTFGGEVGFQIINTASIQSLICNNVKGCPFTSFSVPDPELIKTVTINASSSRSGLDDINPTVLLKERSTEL

[5] = target: Tyrosine-protein kinase receptor TYRO3 (Homo sapiens) (UniProt Q06418); settings: Compound concentration 1.0 uM
[6] = target: Tyrosine-protein kinase ZAP-70 (Homo sapiens) (UniProt P43403); settings: Compound concentration 1.0 uM
[7] = target: Myosin light chain kinase, smooth muscle (Homo sapiens) (UniProt Q15746); settings: Compound concentration 1.0 uM
[8] = target: BDNF/NT-3 growth factors receptor (Homo sapiens) (UniProt Q16620); settings: Compound concentration 1.0 uM
[9] = target: Tyrosine-protein kinase Srms (Homo sapiens) (UniProt Q9H3Y6); settings: Compound concentration 1.0 uM
[10] = target: Ephrin type-A receptor 4 (Homo sapiens) (UniProt P54764); settings: Compound concentration 1.0 uM
[11] = target: Mitogen-activated protein kinase kinase kinase 7 (Homo sapiens) (UniProt O43318); settings: Compound concentration 1.0 uM
Mitogen-activated protein kinase kinase kinase 7 (Homo sapiens), sequence (O43318 whole entry): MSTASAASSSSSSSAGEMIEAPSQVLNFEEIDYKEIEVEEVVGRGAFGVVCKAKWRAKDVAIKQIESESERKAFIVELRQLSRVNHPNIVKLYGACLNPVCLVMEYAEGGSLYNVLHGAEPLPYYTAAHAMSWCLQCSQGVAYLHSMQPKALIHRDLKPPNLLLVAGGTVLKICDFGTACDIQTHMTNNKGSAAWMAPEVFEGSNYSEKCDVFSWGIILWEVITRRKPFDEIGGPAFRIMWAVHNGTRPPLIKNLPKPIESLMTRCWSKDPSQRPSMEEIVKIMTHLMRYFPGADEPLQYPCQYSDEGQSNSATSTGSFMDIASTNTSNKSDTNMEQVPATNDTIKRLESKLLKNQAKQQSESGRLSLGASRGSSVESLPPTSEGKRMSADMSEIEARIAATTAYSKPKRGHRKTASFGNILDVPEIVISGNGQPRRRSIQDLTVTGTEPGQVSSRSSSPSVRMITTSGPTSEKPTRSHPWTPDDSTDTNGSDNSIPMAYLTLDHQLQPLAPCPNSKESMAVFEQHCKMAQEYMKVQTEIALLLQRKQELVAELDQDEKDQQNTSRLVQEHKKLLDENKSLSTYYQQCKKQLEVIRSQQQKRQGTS

[12] = target: Proto-oncogene tyrosine-protein kinase Src (Homo sapiens) (UniProt P12931); test: SRC DUNDEE kinase screen (BI); settings: Gallus gallus; Compound concentration 10.0 uM
[13] = target: 5-hydroxytryptamine receptor 1B (Homo sapiens) (UniProt P28222); settings: Compound concentration 10.0 uM
[14] = target: Serine/threonine-protein kinase PAK 5 (Homo sapiens) (UniProt Q9P286); settings: Compound concentration 1.0 uM
Serine/threonine-protein kinase PAK 5 (Homo sapiens), sequence (Q9P286 whole entry, looked up): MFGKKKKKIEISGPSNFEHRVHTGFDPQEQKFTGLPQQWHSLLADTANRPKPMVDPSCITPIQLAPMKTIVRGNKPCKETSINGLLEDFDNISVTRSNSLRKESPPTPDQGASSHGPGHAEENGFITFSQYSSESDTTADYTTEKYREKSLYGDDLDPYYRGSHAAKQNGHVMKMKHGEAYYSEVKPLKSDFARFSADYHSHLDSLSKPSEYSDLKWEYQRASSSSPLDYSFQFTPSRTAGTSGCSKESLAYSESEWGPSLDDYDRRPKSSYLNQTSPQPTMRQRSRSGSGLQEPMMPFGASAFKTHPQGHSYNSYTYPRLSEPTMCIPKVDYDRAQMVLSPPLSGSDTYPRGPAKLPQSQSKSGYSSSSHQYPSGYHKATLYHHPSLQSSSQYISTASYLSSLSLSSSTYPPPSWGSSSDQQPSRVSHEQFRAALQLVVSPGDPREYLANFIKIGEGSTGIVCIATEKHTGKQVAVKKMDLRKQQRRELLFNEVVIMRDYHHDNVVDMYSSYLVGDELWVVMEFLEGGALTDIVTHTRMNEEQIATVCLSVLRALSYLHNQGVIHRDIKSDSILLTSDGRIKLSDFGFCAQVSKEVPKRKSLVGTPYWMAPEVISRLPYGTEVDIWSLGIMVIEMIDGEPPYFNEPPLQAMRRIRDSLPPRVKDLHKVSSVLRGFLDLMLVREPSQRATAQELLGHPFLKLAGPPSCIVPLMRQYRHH

[15] = target: Mitogen-activated protein kinase kinase kinase 5 (Homo sapiens) (UniProt Q99683); settings: Compound concentration 1.0 uM
[16] = target: Fibroblast growth factor receptor 2 (Homo sapiens) (UniProt P21802); settings: Compound concentration 1.0 uM
[17] = target: Leukocyte tyrosine kinase receptor (Homo sapiens) (UniProt P29376); settings: Compound concentration 1.0 uM
Leukocyte tyrosine kinase receptor (Homo sapiens), sequence (P29376 whole entry): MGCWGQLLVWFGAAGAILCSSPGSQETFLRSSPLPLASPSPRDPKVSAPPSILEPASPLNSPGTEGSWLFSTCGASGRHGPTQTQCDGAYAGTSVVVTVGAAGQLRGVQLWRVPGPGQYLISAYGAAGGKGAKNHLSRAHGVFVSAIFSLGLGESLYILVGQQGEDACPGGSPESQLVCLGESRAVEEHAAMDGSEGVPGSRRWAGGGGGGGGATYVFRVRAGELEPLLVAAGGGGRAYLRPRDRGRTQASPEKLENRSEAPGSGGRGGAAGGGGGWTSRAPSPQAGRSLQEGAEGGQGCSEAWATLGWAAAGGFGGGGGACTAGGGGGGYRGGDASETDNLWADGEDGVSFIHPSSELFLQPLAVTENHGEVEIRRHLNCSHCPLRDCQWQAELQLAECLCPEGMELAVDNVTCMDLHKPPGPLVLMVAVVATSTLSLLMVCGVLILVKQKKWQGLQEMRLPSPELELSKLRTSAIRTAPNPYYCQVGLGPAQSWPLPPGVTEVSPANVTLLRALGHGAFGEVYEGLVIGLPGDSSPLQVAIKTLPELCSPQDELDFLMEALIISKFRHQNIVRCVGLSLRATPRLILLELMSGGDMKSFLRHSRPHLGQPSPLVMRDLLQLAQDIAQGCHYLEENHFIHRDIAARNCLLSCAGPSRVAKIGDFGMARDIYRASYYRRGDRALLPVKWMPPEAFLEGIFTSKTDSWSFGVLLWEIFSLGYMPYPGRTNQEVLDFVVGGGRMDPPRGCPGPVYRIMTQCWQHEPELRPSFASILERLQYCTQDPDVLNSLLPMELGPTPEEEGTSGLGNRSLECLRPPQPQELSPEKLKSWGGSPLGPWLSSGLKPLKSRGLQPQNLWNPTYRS

[18] = target: SRSF protein kinase 2 (Homo sapiens) (UniProt P78362); test: SRPK2 Invitrogen Lab (UK) kinase screen (BI); settings: Compound concentration 1.0 uM
[19] = target: Histamine H1 receptor (Homo sapiens) (UniProt P35367); settings: Compound concentration 10.0 uM
Histamine H1 receptor (Homo sapiens), sequence (P35367 whole entry): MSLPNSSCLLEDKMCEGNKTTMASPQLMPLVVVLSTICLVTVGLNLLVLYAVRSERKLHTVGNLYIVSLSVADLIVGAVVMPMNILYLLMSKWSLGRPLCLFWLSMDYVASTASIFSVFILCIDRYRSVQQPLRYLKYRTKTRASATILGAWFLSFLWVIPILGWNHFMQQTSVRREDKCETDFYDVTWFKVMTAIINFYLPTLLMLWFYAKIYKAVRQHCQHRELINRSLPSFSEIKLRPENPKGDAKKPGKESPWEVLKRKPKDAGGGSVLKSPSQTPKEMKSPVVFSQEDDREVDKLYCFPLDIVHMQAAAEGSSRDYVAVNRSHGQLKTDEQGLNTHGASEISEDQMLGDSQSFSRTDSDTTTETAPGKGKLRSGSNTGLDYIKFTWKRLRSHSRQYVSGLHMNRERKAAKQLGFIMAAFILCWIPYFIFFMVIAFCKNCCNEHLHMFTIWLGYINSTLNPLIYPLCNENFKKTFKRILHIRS

[20] = target: CDK3/Cyclin E (Homo sapiens) (UniProt P24864+Q00526); test: CDK3/CYCLIN E1 Invitrogen Lab (UK) kinase screen (BI); type: protein-complex assay; settings: Compound concentration 1.0 uM
CDK3/Cyclin E (Homo sapiens), sequence (P24864 whole entry, looked up): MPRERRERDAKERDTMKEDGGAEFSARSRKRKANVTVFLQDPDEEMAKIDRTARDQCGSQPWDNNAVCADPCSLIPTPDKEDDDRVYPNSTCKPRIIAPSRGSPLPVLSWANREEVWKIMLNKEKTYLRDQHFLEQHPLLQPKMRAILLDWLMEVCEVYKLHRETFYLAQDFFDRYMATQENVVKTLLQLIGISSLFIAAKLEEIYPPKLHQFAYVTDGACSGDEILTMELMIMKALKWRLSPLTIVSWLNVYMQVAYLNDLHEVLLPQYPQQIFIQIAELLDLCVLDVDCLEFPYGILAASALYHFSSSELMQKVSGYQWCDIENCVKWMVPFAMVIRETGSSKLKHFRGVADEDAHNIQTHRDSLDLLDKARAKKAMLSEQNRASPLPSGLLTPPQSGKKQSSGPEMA
CDK3/Cyclin E (Homo sapiens), sequence (Q00526 whole entry, looked up): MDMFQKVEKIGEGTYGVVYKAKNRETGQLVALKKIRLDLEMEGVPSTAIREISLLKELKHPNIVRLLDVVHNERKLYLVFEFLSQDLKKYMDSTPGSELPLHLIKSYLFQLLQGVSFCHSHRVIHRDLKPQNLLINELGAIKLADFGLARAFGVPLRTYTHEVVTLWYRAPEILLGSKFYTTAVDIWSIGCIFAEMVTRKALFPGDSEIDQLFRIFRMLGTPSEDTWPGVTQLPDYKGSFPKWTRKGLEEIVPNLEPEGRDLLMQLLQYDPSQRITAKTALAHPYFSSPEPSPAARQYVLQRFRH

[21] = target: Tyrosine-protein kinase ABL2 (Homo sapiens) (UniProt P42684); settings: Compound concentration 1.0 uM
[22] = target: Macrophage colony-stimulating factor 1 receptor (Homo sapiens) (UniProt P07333)
Macrophage colony-stimulating factor 1 receptor (Homo sapiens), sequence (P07333 whole entry): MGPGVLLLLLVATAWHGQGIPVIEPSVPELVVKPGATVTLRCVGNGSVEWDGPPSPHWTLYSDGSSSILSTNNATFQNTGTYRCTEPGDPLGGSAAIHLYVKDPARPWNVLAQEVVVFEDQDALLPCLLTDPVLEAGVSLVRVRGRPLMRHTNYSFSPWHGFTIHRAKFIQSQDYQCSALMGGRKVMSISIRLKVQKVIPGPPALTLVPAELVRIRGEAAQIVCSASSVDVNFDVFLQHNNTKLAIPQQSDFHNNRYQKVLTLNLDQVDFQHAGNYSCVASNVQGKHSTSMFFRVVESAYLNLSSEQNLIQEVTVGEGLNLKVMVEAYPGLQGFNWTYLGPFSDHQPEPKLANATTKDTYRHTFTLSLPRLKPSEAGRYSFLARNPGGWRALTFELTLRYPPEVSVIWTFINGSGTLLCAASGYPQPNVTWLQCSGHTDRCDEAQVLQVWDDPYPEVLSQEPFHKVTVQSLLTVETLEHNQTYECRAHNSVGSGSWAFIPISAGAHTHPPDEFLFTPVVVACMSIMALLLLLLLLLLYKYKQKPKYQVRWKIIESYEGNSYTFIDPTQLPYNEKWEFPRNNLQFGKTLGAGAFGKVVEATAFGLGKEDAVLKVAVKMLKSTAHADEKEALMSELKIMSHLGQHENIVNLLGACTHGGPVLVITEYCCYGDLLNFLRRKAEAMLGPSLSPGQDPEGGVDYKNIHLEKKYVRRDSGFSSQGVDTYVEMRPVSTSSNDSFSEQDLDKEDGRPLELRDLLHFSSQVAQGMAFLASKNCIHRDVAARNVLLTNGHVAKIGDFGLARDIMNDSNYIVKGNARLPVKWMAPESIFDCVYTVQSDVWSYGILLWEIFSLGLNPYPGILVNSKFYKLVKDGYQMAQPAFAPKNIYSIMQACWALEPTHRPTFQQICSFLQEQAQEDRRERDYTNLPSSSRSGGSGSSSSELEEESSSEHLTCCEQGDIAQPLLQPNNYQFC

[23] = target: Fibroblast growth factor receptor 3 (Homo sapiens) (UniProt P22607); settings: Compound concentration 1.0 uM
[24] = target: 5-hydroxytryptamine receptor 1D (Homo sapiens) (UniProt P28221); settings: Compound concentration 10.0 uM
[25] = target: Sodium-dependent noradrenaline transporter (Homo sapiens) (UniProt P23975); test: NETRANS/H Eurofins SafetyScreen44 (BI); settings: Compound concentration 10.0 uM
[26] = target: Casein kinase 2 (Homo sapiens) (UniProt P67870+P68400+P19784+Q8NEV1); test: CK2 DUNDEE kinase screen (BI); type: protein assay; settings: Compound concentration 10.0 uM

CCC(F)(F)c1cc(N2CCC(S(C)(=O)=O)CC2)nc2sc(C(N)=O)c(N)c12 [BI-605906]
residual activity [1]: 101% | residual activity ([2]; Compound concentration 0.001 uM): 99% | residual activity ([2]; Compound concentration 1.0 uM): 7% | residual activity ([2]; Compound concentration 20.0 uM): 6% | residual activity [3]: 99% | residual activity [4]: 82% | residual activity [5]: 94% | residual activity [6]: 95% | residual activity [7]: 91% | residual activity [8]: 95% | residual activity [9]: 99% | residual activity [10]: 93% | residual activity [11]: 101% | residual activity [12]: 73.8% | inhibition [13]: 3.43% | residual activity [14]: 93% | residual activity [15]: 99% | residual activity [16]: 94% | residual activity [17]: 99% | residual activity [18]: 103% | residual activity [19]: 95% | residual activity [20]: 78% | residual activity [21]: 91% | residual activity ([22]; Compound concentration 1.0 uM): 58% | residual activity ([22]; Compound concentration 10.0 uM): 14% | residual activity [23]: 96% | inhibition [24]: 26.9% | residual activity [25]: 112% | residual activity [26]: 89.4%

Source: ChEMBL document CHEMBL4800722, “Data for DCP probe BI 605906” (2021)
